Here are results for eight molecules from patent US6960687B2, “Derivatives and pharmaceutical compositions of n-hydroxyalkyl tetramethylcyclopropane-carboxamide, having anti-epiletic, neurological, and CNS activity, and method for their preparation” (priority 2002, dated 2005).

The subject of one data set is mouse. The note with it: literature statement; cited from earlier work.
Data set [1] concerns mice. Nature of the data set: subcutaneous metrazole test (sc Met). The data set is classed as in vivo. The text has this:
This value is slightly lower (more efficacious) than that found for VPA in mice. The results are indicative of the compound 1 having an efficacy against absence seizures and ability to raise seizure threshold.
(§1) Compound V of the above diagram (2-hydroxyethyl-tetramethylcyclopropane-carboxamide) was screened for its ability to protect against induced convulsions in MES and scMet test. […] At the sc Met (subcutaneous metrazole) test, 3 out of 4 mice were protected following ip administration of 50 mg/kg.

For data set [2], the system named is mice. Nature of the data set: maximal electroshock seizure test (MES). The data set is classed as in vivo. On the procedure:
The ED50 (mice ip) in the MES model is between 150 and 300 mg/kg in mice (Table 1). This value is slightly lower than that of VPA in mice. The results are indicative of the compound 1 having an efficacy against generalized seizures and complex partial seizures that evolve into generalized motor seizures.
as §1

Data set [3] concerns mice. In words: neurotoxicity, rotorod ataxia test. The class given is in vivo. On the procedure: (§2) Neurotoxicity of the claimed agents was assessed in mice (ip. administration) in the rotorod ataxia test. Compound 1 was neurotoxic in some of the mice tested at doses of above 146 mg/kg ip. The PI for compound 1 at the highest stimulus intensity (44 mA) in the 6 Hz test in mice was 1.1 compared to 0.91 for VPA.

For data set [4], the system named is mice. Nature of the data set: 6 Hz psychomotor seizure model. The note with it: for PI (6 Hz 44 mA): protective index at 44 mA stimulus; for ED50: Mus musculus, 0.25 h.
The subject of data set [5] is animal models of epilepsy. The note with it: literature statement; cited from earlier work.
Data set [6] has as its system mice. The conditions noted are these: cited from earlier work.
A short description of data set [7]: neurotoxicity, rotorod ataxia test. The conditions noted are these: mouse, in vivo, ip. The data set is classed as in vivo, mice. On the procedure: as §2
The mark [8] stands for this setting: ip, 15 min following administration.

On to `CCCC(C(N)=O)C(C)C` (stereo not drawn) [propyl-isoproylacetamide (PID), propyl-isoproylacetamide], for which, in the data set with mouse, the teratogenicity result was “non-teratogenic”.

Take `CC1(C)C(C(=O)NCCO)C1(C)C` [Compound V, 2-hydroxyethyl-tetramethylcyclopropane-carboxamide]: in the data set with mice [1] (ip administration of 50 mg/kg), the “mice protected at the sc Met test” value is given as 3 out of 4. Further, the “mice protected at the MES test” value in the data set with mice [2] (dose of 30 mg/kg ip) was 1 out of 4. Moreover, the “behavioral impairment (neurotoxicity)” value with mice [3] (dose of 50 mg/kg ip) is reported as “did not show any behavioral impairment”.

With `CC1(C)C(C(=O)NCO)C1(C)C` [Compound 1, N-hydroxymethyl-tetramethylcyclopropane-carboxamide], the “sc Met ED50” value in the data set with mice [1] (setting [8]) is on record as 120 mg/kg. Further, the “times more active compared to VPA, 6 Hz 32 mA test” value in the data set with mice [4] (mice, 32 mA) is 1.38 times. Besides, the “times more active compared to VPA, 6 Hz 44 mA test” value in the data set with mice [4] (mice, 44 mA) was 2.31 times. Further, in the data set with mice [4] (mice, ip, 15 min, stimulation intensity 22 mA), the “6 Hz 22 mA ED50” value came to 75 mg/kg. For the same molecule, in the data set on mice [4] (mice, ip, 15 min, stimulation intensity 32 mA), the “6 Hz 32 mA ED50” value is reported as 91 mg/kg. The “6 Hz 44 mA ED50” value in the data set on mice [4] (mice, ip, 15 min, stimulation intensity 44 mA) is 134 mg/kg. Further, the “PI (6 Hz 44 mA)” value in the data set with mice [4] (mice, ip) was 1.1. Besides, the “MES ED50” value in the data set with mice [2] (setting [8]) is 150 to 300 mg/kg. Also, in the data set on mice [3] (mice, ip, 15 min following administration), the “Neurotoxicity TD50” value is 146 mg/kg. The “doses neurotoxic in some of the mice tested” value in the data set on mice [3] (mice, ip, rotorod ataxia test) is recorded as “above 146 mg/kg”.

On to `CCC(C)C(CC)C(N)=O` (stereo not drawn) [Valnoctamide (VCD), Valnoctamide], for which, in the data set with mouse, the teratogenicity result is reported as “non-teratogenic”.

On to `CNC(=O)C1C(C)(C)C1(C)C` [N-Methyl-tetramethylcyclopropane carboxamide], for which, in the data set with mouse, the teratogenicity result was “not teratogenic”. Further, in data set [5], the “potency relative to VPA in animal models of epilepsy” value is recorded as “approximately 10 times”.

As for `CC[C@@H](C(N)=O)N1CCCC1=O` [levetiracetam], the “ED50 in 6 Hz model at 44 mA stimulus (existing antiepileptic drugs)” value with mice [6] is recorded as 189 mg/kg.

With `CC1(C)C(C(N)=O)C1(C)C` [Tetramethylcyclopropane carboxamide, Tetramethyl-cyclopropane-carboxamide], the teratogenicity entry in the data set with mouse was “not teratogenic”.

For the molecule `CCCC(CCC)C(=O)O` [VPA, valproic acid, reference compound], the ED50 is 42 mg/kg in the data set with mice [4] (ip, read-out: 6 Hz 22 mA ED50); 310 mg/kg in the data set with mice [4] (ip, read-out: 6 Hz 44 mA ED50); 271 mg/kg in the data set on mice [2] (Mus musculus, 0.25 h, ip, 15 min following administration). Also, the “PI (6 Hz 44 mA)” value with mice [4] (mice, ip) is 0.91. In data set [7], this molecule yielded a TD50 at 15 min of 283 mg/kg.
